Active and inactive are the calls of the source. The rule behind the calls is not given here.
How the values were obtained:
[1] = Inhibition of bovine tubulin polymerization after 30 mins by turbidity assay; design: species or system Bos taurus
[2] = target: T1, Vascular endothelial growth factor receptor 2 (Homo sapiens, UniProt P35968); test: Inhibition of VEGFR2 expressed HEK293 cells; assay type: cell-based
[3] = target: T1, Vascular endothelial growth factor receptor 2; test: Inhibition of VEGFR-2 kinase assessed as phosphorylated level of pGAT-biotin peptide preincubated for 5 to 10 mins before addition of substrate measured after 2 hrs by HTRF assay
[4] = tested on: A-431; test: cells; settings: Homo sapiens, A-431, 24 h
Description: Cell cycle arrest in human A431 cells assessed as accumulation at G2/M phase after 24 hrs using propidium iodide staining by cell sorting method

[5] = target: Serine/threonine-protein kinase PLK1 (Homo sapiens) (UniProt P53350); test: Inhibition of polo-like kinase 1
Sequence of Serine/threonine-protein kinase PLK1 (Homo sapiens) (P53350 whole entry): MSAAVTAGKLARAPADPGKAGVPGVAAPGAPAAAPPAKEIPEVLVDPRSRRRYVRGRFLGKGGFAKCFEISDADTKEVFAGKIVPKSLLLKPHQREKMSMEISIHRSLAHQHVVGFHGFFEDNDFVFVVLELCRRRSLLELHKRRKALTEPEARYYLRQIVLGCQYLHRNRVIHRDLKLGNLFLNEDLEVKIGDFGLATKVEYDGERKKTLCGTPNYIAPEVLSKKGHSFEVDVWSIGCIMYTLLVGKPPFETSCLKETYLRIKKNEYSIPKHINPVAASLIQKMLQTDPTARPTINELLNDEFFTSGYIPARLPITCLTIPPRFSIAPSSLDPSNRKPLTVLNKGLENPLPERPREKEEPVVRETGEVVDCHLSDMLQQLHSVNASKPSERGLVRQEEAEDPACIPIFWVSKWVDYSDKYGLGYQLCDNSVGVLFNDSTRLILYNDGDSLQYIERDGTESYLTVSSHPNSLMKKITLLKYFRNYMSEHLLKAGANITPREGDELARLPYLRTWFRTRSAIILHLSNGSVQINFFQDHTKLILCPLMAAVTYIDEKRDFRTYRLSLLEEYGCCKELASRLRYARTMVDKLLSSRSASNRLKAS

[6] = target: Cyclin-dependent kinase 1 (Homo sapiens) (UniProt P06493); test: Inhibition of CDK1
Sequence of Cyclin-dependent kinase 1 (Homo sapiens) (P06493 whole entry, looked up): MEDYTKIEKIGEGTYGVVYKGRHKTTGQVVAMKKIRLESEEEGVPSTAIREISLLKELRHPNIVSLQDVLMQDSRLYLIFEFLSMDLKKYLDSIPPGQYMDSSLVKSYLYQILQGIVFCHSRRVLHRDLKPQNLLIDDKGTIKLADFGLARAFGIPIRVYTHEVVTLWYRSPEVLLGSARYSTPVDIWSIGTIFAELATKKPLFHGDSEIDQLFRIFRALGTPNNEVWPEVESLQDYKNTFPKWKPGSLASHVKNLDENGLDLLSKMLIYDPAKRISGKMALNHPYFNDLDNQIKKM

[7] = target: T2, Aurora kinase A (Homo sapiens) (UniProt O14965); test: Inhibition of Aurora A kinase
T2 sequence (whole entry): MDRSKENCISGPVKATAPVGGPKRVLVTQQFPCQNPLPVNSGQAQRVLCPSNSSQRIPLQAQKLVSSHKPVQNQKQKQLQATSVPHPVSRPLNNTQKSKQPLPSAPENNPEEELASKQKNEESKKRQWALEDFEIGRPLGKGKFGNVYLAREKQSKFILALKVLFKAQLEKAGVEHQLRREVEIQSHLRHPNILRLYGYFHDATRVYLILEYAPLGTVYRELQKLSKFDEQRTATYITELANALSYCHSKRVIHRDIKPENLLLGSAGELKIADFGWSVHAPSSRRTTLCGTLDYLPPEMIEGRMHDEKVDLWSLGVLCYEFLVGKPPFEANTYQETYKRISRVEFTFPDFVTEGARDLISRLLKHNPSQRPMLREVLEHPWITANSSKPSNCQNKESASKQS

[8] = tested on: Mus musculus; test: Toxicity in mouse assessed as moribund at 100 mg/kg, po administered once a week measured on day 26; assay type: organism-based; design: dose 100 mg/kg, route oral; settings: in vivo
[9] = tested on: Mus musculus; test: Toxicity in mouse assessed as enlarged intestine at 100 mg/kg, po administered once a week; assay type: organism-based; design: dose 100 mg/kg, route oral; settings: in vivo
[10] = tested on: Mus musculus; test: Toxicity in mouse assessed as distended stomach at 100 mg/kg, po administered once a week; assay type: organism-based; design: dose 100 mg/kg, route oral; settings: in vivo
[11] = tested on: Mus musculus; test: Toxicity in mouse assessed as body weight change at 100 mg/kg, po administered once a week; assay type: organism-based; design: dose 100 mg/kg, route oral; settings: in vivo
[12] = tested on: Mus musculus; test: Toxicity in mouse assessed as inflamed intestine at 100 mg/kg, po administered once a week; assay type: organism-based; design: dose 100 mg/kg, route oral; settings: in vivo
[13] = Antitumor activity against human MDA-MB-435-LM2 cells xenografted in mouse assessed as tumor size at 100 mg/kg, po administered once a week measured on day 26 relative to control; assay type: functional
[14] = tested on: Mus musculus; test: Toxicity in mouse assessed as discomfort signs at 100 mg/kg, po administered once a week; assay type: organism-based; design: dose 100 mg/kg, route oral; settings: in vivo
[15] = tested on: Mus musculus; test: Toxicity in mouse assessed as abnormal pathology at 100 mg/kg, po administered once a week; assay type: organism-based; design: dose 100 mg/kg, route oral; settings: in vivo
[16] = tested on: Mus musculus; test: Toxicity in mouse assessed as white blood cell depletion at 100 mg/kg administered once a week; assay type: organism-based; design: dose 100 mg/kg; settings: in vivo
[17] = Toxicity in po dosed mouse; assay type: organism-based; settings: in vivo
[18] = tested on: Mus musculus; test: Toxicity in mouse assessed as neuropathy at 100 mg/kg administered once a week; assay type: organism-based; design: dose 100 mg/kg; settings: in vivo

T1 sequence (P35968 whole entry): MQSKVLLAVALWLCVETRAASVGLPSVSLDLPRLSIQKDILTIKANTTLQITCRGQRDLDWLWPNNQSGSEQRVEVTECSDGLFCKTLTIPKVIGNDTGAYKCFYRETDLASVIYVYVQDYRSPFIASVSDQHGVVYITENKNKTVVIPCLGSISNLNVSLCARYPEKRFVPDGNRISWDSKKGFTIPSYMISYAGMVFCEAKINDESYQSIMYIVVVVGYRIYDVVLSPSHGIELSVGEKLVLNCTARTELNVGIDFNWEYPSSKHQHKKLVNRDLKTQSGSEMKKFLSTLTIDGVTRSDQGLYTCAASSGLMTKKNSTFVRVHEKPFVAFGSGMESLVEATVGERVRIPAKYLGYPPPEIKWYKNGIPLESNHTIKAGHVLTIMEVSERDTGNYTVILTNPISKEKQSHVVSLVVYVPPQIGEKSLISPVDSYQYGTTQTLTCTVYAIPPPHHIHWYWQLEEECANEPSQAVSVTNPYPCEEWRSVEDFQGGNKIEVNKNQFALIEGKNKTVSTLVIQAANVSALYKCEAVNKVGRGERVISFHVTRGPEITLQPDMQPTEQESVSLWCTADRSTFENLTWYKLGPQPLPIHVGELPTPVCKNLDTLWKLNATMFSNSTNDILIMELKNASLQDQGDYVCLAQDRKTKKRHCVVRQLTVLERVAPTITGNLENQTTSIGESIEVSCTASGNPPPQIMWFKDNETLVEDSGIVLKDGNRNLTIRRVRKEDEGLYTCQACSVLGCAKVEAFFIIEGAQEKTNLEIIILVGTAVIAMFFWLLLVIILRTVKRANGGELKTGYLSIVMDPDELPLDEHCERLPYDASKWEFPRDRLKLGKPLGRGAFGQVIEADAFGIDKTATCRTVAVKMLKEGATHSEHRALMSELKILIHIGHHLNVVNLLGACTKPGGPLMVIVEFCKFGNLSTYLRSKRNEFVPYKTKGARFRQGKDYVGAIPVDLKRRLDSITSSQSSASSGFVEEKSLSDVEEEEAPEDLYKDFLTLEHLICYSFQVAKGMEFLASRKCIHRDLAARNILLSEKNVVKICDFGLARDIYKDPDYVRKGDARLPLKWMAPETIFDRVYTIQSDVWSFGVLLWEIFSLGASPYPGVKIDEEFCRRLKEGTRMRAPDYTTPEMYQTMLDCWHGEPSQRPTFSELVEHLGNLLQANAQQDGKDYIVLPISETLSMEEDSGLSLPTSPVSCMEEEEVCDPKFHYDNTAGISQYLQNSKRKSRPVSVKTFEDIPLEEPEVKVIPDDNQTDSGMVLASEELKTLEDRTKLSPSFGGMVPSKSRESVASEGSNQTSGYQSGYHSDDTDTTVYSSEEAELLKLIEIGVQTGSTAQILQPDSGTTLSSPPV

| Structure (SMILES) | IC50 [1] [µM] | IC50 [2] [µM] | IC50 [3] [µM] | EC50 [4] [µM] | further results |
| --- | --- | --- | --- | --- | --- |
| c1ccc(CNc2ncccc2-c2nnc(Nc3ccc4c(c3)OCO4)o2)nc1 | 1.7 | > 10 | > 10 |  |  |
| FC1(F)Oc2ccc(Nc3nnc(-c4cccnc4NCc4ccncc4)o3)cc2O1 | 3.9 | > 10 | 3.16 | > 10 |  |
| c1cnc(NCc2ccncc2)c(-c2nnc(Nc3ccc4c(c3)OCO4)o2)c1 | 1 | > 10 | 1.89 |  |  |
| c1cncc(CNc2ncccc2-c2nnc(Nc3ccc4c(c3)OCO4)o2)c1 | 8.8 | > 10 | > 10 |  |  |
| c1cncc(CCNc2ncccc2-c2nnc(Nc3ccc4c(c3)OCO4)o2)c1 | 1.7 | > 10 | 3.41 | > 10 |  |
| c1ccc(-c2nnc(Nc3ccc4c(c3)OCO4)o2)c(NCc2ccncc2)c1 | 0.69 | > 10 | 0.83 | 0.62 |  |
| c1cncc(CNc2ncccc2-c2nnc(Nc3ccc4c(c3)OCCO4)o2)c1 | 0.7 | > 10 | > 10 |  |  |
| c1cnc(NCc2ccc3ncccc3c2)c(-c2nnc(Nc3ccc4c(c3)OCCO4)o2)c1 | 1.45 | 0.22 | 0.3 | 0.018 | inhibition [5]: Active; inhibition [6]: Active; inhibition [7]: Active |
| c1cnc(NCc2cnc[nH]2)c(-c2nnc(Nc3ccc4c(c3)OCCO4)o2)c1 | 1.5 | 0.83 | 0.16 | 0.01 |  |
| CS(=O)(=O)c1ccc(-c2nnc(-c3cccnc3NCC3COCCO3)[nH]2)cc1 (stereo unspecified) | 6.6 | > 10 | 4.5 | > 10 |  |
| CC(=O)O[C@H]1C(=O)[C@@]2(C)[C@H]([C@H](OC(=O)c3ccccc3)[C@]3(O)C[C@H](OC(=O)[C@H](O)[C@@H](NC(=O)c4ccccc4)c4ccccc4)C(C)=C1C3(C)C)[C@]1(OC(C)=O)CO[C@@H]1C[C@@H]2O [PACLITAXEL] |  |  |  |  | Activity [8]: Toxic; Activity [9]: Toxic; Activity [10]: Toxic; Activity [11]: 2.8%; Activity [12]: Toxic; Activity [13]: 78% |
| FC(F)(F)c1cccc(-c2nnc(-c3cccnc3NCc3ccncc3)o2)c1 | > 10 | > 10 | 2.5 | > 10 |  |
| c1ccc(-c2nnc(Nc3ccc4c(c3)OCCO4)o2)c(NCc2ccncc2)c1 | 1.09 | 0.11 | 0.21 | 0.009 | Activity [14]: Toxic; inhibition [5]: Active; Activity [15]: Toxic; Activity [11]: 3.1%; inhibition [6]: Active; Activity [16]: Non-toxic; MTD [17]: 100 mg/kg; Activity [18]: Non-toxic; inhibition [7]: Active; Activity [13]: 28% |
| c1ccc(CNc2ncccc2-c2nnc(Nc3ccc4c(c3)OCCO4)o2)nc1 | 1.9 | > 10 | > 10 |  |  |
| c1ccc(-c2nnc(Nc3ccc4c(c3)OCCO4)[nH]2)c(NCc2ccncc2)c1 | 8.1 | > 10 | 5.1 | 0.049 |  |
| c1cncc(CCNc2ncccc2-c2nnc(Nc3ccc4c(c3)OCCO4)o2)c1 | > 10 | > 10 | > 10 | > 10 |  |
| c1cncc(CNc2ccccc2-c2nnc(Nc3ccc4c(c3)OCCO4)[nH]2)c1 | > 10 | 2.8 | 3.2 | > 10 |  |
| c1ccc(-c2nnc(Nc3ccc4c(c3)OCCO4)[nH]2)c(NCc2ccc3[nH]ncc3c2)c1 | > 10 | 7.3 | 3.1 | > 10 |  |
| c1ccc(-c2nnc(Nc3ccc4c(c3)OCCO4)[nH]2)c(NCc2cnc[nH]2)c1 | > 10 | > 10 | 4.6 | > 10 |  |
| c1cnc(NCCc2ccncc2)c(-c2nnc(Nc3ccc4c(c3)OCO4)o2)c1 | > 10 | > 10 | > 10 | > 10 |  |
| c1cnc(NCCc2ccncc2)c(-c2nnc(Nc3ccc4c(c3)OCCO4)o2)c1 | > 10 | > 10 | > 10 | > 10 |  |
| c1cnc(NCc2ccncc2)c(-c2nnc(Nc3ccc4c(c3)OCCO4)o2)c1 | 0.5 | 1 | 0.17 |  |  |
| FC(F)(F)c1cccc(-c2nnc(-c3cccnc3NCc3ccncc3)[nH]2)c1 | > 10 | 1 | 1.1 | > 10 |  |
| c1cnc(NCc2ccc3c(c2)OCO3)c(-c2nnc(Nc3ccc4c(c3)OCCO4)o2)c1 | 0.71 | > 10 | 2.6 |  |  |
| c1cnc(NCc2ccc3c(c2)OCO3)c(-c2nnc(Nc3ccc4c(c3)OCO4)o2)c1 | 2.5 | > 10 | > 10 | 0.52 |  |
| c1cnc(NCc2ccc3[nH]ncc3c2)c(-c2nnc(Nc3ccc4c(c3)OCCO4)o2)c1 | 1.25 | > 10 | 1.4 | 0.034 |  |
| c1ccc(-c2nnc(Nc3ccc4c(c3)OCCO4)[nH]2)c(NCc2ccc3ncccc3c2)c1 | > 10 | > 10 | > 10 | > 10 |  |
